In brackets after ≈: the same amount, converted by molar mass.
Columns and labels:
[1] = tested on: Candida tropicalis; test: Inhibition of Candida tropicalis ATCC 750 chitin synthase using UDP-GlcNAc as substrate at 300 ug/ml incubated for 1 hrs by absorbance based assay relative to control; details: dose 300.0 µg/ml
[2] = Inhibition of Candida tropicalis ATCC 750 chitin synthase using UDP-GlcNAc as substrate incubated for 1 hrs by absorbance based assay
[3] = tested on: Candida albicans; test: Antifungal activity against Candida albicans ATCC 76615 assessed as fungal growth inhibition incubated for 24 hrs by CLSI protocol based broth microdilution method; assay type: functional
[4] = tested on: Aspergillus flavus; test: Antifungal activity against Aspergillus flavus ATCC 16870 assessed as fungal growth inhibition incubated for 24 hrs by CLSI protocol based broth microdilution method; assay type: functional
[5] = tested on: Aspergillus fumigatus; test: Antifungal activity against Aspergillus fumigatus GIMCC 3.19 assessed as fungal growth inhibition incubated for 24 hrs by CLSI protocol based broth microdilution method; assay type: functional
[6] = tested on: Cryptococcus neoformans; test: Antifungal activity against Cryptococcus neoformans ATCC 208821 assessed as fungal growth inhibition incubated for 24 hrs by CLSI protocol based broth microdilution method; assay type: functional
[7] = tested on: Candida albicans; test: Antifungal activity against fluconazole-resistant Candida albicans ATCC 76615R assessed as fungal growth inhibition; assay type: functional
[8] = tested on: Cryptococcus neoformans; test: Antifungal activity against fluconazole-resistant Cryptococcus neoformans ATCC 208821R assessed as fungal growth inhibition; assay type: functional
[9] = tested on: Candida albicans; test: Antifungal activity against micafungin-resistant Candida albicans ATCC 76615R assessed as fungal growth inhibition; assay type: functional
[10] = tested on: Candida albicans; test: Antifungal activity against Candida albicans ATCC 76615 assessed as disruption of fungal wall by measuring fungal growth incubated for 24 hrs in the presence of sorbitol; assay type: functional
[11] = tested on: Cryptococcus neoformans; test: Antifungal activity against Cryptococcus neoformans ATCC 208821 assessed as disruption of fungal wall by measuring fungal growth incubated for 24 hrs in the presence of sorbitol; assay type: functional
[12] = Selectivity ratio of MIC for antifungal activity against Candida albicans ATCC 76615 assessed as disruption of fungal wall by measuring fungal growth incubated for 24 hrs in the presence of sorbitol to MIC for antifungal activity against Candida albicans ATCC 76615 assessed as fungal growth inhibition; assay type: functional
[13] = tested on: Aspergillus flavus; test: Antifungal activity against Aspergillus flavus ATCC 16870 assessed as disruption of fungal wall by measuring fungal growth incubated for 24 hrs in the presence of sorbitol; assay type: functional
[14] = tested on: Aspergillus fumigatus; test: Antifungal activity against Aspergillus fumigatus GIMCC 3.19 assessed as disruption of fungal wall by measuring fungal growth incubated for 24 hrs in the presence of sorbitol; assay type: functional
[15] = tested on: Candida albicans; test: Synergistic antifungal activity against Candida albicans ATCC 76615 assessed as fungal growth inhibition incubated for 24 hrs in the presence of fluconazole by broth dilution based checkerboard method; assay type: functional
[16] = tested on: Aspergillus fumigatus; test: Synergistic antifungal activity against Aspergillus fumigatus GIMCC 3.19 assessed as fungal growth inhibition incubated for 24 hrs in the presence of fluconazole by broth dilution based checkerboard method; assay type: functional
[17] = tested on: Cryptococcus neoformans; test: Synergistic antifungal activity against Cryptococcus neoformans ATCC 208821 assessed as fungal growth inhibition incubated for 24 hrs in the presence of fluconazole by broth dilution based checkerboard method; assay type: functional
[18] = tested on: Aspergillus flavus; test: Synergistic antifungal activity against Aspergillus flavus ATCC 16870 assessed as fungal growth inhibition incubated for 24 hrs in the presence of fluconazole by broth dilution based checkerboard method; assay type: functional
[19] = tested on: Candida albicans; test: Synergistic antifungal activity against Candida albicans ATCC 76615 assessed as fractional inhibitory concentration index incubated for 24 hrs in the presence of fluconazole by broth dilution based checkerboard method; assay type: functional
[20] = tested on: Aspergillus fumigatus; test: Synergistic antifungal activity against Aspergillus fumigatus GIMCC 3.19 assessed as fractional inhibitory concentration index incubated for 24 hrs in the presence of fluconazole by broth dilution based checkerboard method; assay type: functional
[21] = tested on: Cryptococcus neoformans; test: Synergistic antifungal activity against Cryptococcus neoformans ATCC 208821 assessed as fractional inhibitory concentration index incubated for 24 hrs in the presence of fluconazole by broth dilution based checkerboard method; assay type: functional
[22] = tested on: Aspergillus flavus; test: Synergistic antifungal activity against Aspergillus flavus ATCC 16870 assessed as fractional inhibitory concentration index incubated for 24 hrs in the presence of fluconazole by broth dilution based checkerboard method; assay type: functional

Structure (SMILES) | inhibition [1] | IC50 [2] | MIC [3] | MIC [4] | MIC [5] | MIC [6] | MIC [7] | MIC [8] | MIC [9] | MIC [10] | MIC [11] | Ratio [12] | MIC [13] | MIC [14] | also measured
COc1cc(Br)c(NC(=O)/C=C/C(=O)N2CCC3(CC2)OC(=O)Nc2ccc(OC)cc23)c(Br)c1 | 72% | 110 µM | 64 µg/mL (≈ 105 µM) | 256 µg/mL (≈ 420 µM) | 128 µg/mL (≈ 210 µM) | 64 µg/mL (≈ 105 µM) | 64 µg/mL (≈ 105 µM) | 64 µg/mL (≈ 105 µM) | 64 µg/mL (≈ 105 µM) | 512 µg/mL | 512 µg/mL | 8 | – | – | –
COc1ccc2c(c1)C1(CCN(C(=O)/C=C/C(=O)Nc3ccc(Br)cc3)CC1)OC(=O)N2 | 83% | 140 µM | 26.7 µg/mL (≈ 53.3 µM) | 32 µg/mL (≈ 64 µM) | 64 µg/mL (≈ 128 µM) | 64 µg/mL (≈ 128 µM) | 32 µg/mL (≈ 64 µM) | 53.3 µg/mL (≈ 107 µM) | 32 µg/mL (≈ 64 µM) | 256 µg/mL | 256 µg/mL | 8 | 256 µg/mL | 512 µg/mL | MIC [15]: 16 µg/mL; MIC [16]: 32 µg/mL; MIC [17]: 32 µg/mL; MIC [18]: 53.3 µg/mL; fractional inhibitory concentration index (FICI) [19]: 0.85; fractional inhibitory concentration index (FICI) [20]: 1.25; fractional inhibitory concentration index (FICI) [21]: 1; fractional inhibitory concentration index (FICI) [22]: 3.67
NC(=O)OC[C@H](O)[C@@H](O)[C@H](N)C(=O)N[C@H](C(=O)O)[C@H]1O[C@@H](n2cc(CO)c(=O)[nH]c2=O)[C@H](O)[C@@H]1O [POLYOXIN B] | 85% | 80 µM | 64 µg/mL (≈ 126 µM) | 64 µg/mL (≈ 126 µM) | 32 µg/mL (≈ 63.1 µM) | 64 µg/mL (≈ 126 µM) | – | – | – | 512 µg/mL | > 512 µg/mL | – | > 512 µg/mL | 512 µg/mL | –
